Values joined by “and” are separate entries in the source; they are usually repeats but may differ in a detail not shown here. Identical values can stand only once.
Tests used:
[1] = system: Pseudomonas aeruginosa clinical isolates; experiment: MIC by standard microdilution, clinical isolates of Pseudomonas aeruginosa; type: cell-based
Experimental: Minimum inhibitory concentrations (MICs) of SET-M33L were determined against 76 clinical isolates of Pseudomonas aeruginosa and 73 clinical isolates of Klebsiella pneumoniae. The isolates were selected on the basis of their resistance phenotypes and major antibiotic resistance determinants, including resistance to colistin and carriage of carbapenemase-encoding genes (Table 1 and supplemental Tables S1 and S2).
MIC values were determined against a large collection of clinical isolates. Most isolates were collected during routine susceptibility testing procedures at the Clinical Microbiology Unit of Careggi University Hospital in Florence, while specific isolates were selected according to their phenotype or genotype (e.g. carriage of carbapenemase-encoding genes, inclusion in epidemic bacterial clones, resistance to colistin) from a collection of isolates already available at Department of Medical Biotechnologies, University of Siena. Detailed features of each strain, including relevant resistance phenotypes and genotypes were reported in supplemental Tables S1 and S2. MICs were determined in triplicate using a standard microdilution assay according to the guidelines of the Clinical and Laboratory Standards Institute[34]. SET-M33L was assayed using concentrations in the range 0.09–11.2 μM (0.5–64 μg/mL); testing was performed using a bacterial inoculum of 5 × 10^4 CFU/well prepared in cation-supplemented Mueller-Hinton broth (MHB) (Becton Dickinson, Franklin Lakes, NJ, USA) in a final volume of 100 μl. Results were recorded after 18–20 h of incubation at 35 °C.

[2] = system: K. pneumoniae strain KKBO-1; experiment: In vitro selection of resistant mutants on peptide-containing MHB agarose; type: cell-based, Klebsiella pneumoniae; settings: KKBO-1, same experimental conditions
Experimental: (§1) Tests were performed by plating cells on SET-M33L- or colistin-containing MHB.
Selection was performed on an MHB-based selection medium containing 1% low electro-osmosis agarose as solidifying agent and 11.2 μM SET-M33L (64 μg/mL). Agarose was preferred to agar as solidifying agent due to the observed loss of antimicrobial activity of SET-M33L in selection media solidified with the latter, possibly due to the charged nature of agar. Klebsiella pneumoniae KKBO-1 strain was grown in MHB at 37 °C to OD600 0.35 and up to 5 × 10^9 colony forming units (CFU) were spread on Petri dishes containing 20 ml of the selection medium. Plates were incubated for 16–18 h at 37 °C. Colistin-containing selection medium (equimolar concentration with respect to SET-M33L) was used as control for the selection of colistin-resistant mutants. Experiments were performed in triplicate.

[3] = system: K. pneumoniae strain KKBO-1; type: cell-based, Klebsiella pneumoniae; settings: K. pneumoniae KKBO-1
Experimental: as §1

BALB/c mice = experiment: Acute toxicity in mice, single i.v. dose; type: in vivo, mouse; settings: for mortality: single i.v. dose 10 mg/Kg
Experimental: As preliminary toxicity evaluation we first compared the acute toxicity of SET-M33L and SET-M33L-PEG with that of colistin. Animals (10 BALB/c mice/group) were injected i.v. with different amounts of SET-M33L, SET-M33L-PEG or colistin, in single dose, in the range 5–40 mg/kg (Fig. 4), and were monitored for 4 days after inoculation of the peptide. […] At 40 mg/Kg SET-M33L and SET-M33L-PEG produced similar toxicity profiles with strong signs of toxicity and 90–100% mortality after 96 hours. Colistin produced strong signs of toxicity already at 10 mg/Kg: 50% mortality immediately after inoculation and 70% mortality after 24 hours. Colistin induced sudden death in 100% of mice at 20 and 40 mg/Kg.
Mice were treated by a single i.v. administration of different amounts (40, 20, 10, 5 mg/Kg) of SET-M33L, SET-M33L-PEG or colistin sulfate (Sigma-Aldrich, C4461). Signs of toxicity were checked four times a day by visual inspection. A toxicity score was assigned for the following signs: wiry coat and poor motility = mild signs; very wiry coat, abundant lachrymation and poor motility even under stimulation = manifest signs. Animals were monitored for 4 days after inoculation of the peptide. Mice were weighed every day from arrival to the last day of the experiment. Moribund animals were killed humanely to avoid unnecessary distress.

colistin sulfate
100%: sudden death (BALB/c mice; single i.v. dose 20 mg/Kg) | sudden death (BALB/c mice; single i.v. dose 40 mg/Kg)
1 μg/mL and 0.7 μM: MIC ([1]; isolate SI_P76, CARB, β/I, ESC, FQ, AG, blaIMP)
at least 500: times more prone to select resistant mutants than SET-M33L [2]
50%: mortality (BALB/c mice; immediately after inoculation)
2 µg/mL: MIC ([1]; isolate SI_P2, CARB, β/I, ESC, FQ, AG, blaVIM) | MIC ([1]; isolate SI_P3, phenotype none) | MIC ([1]; isolate SI_P6, phenotype none) | MIC ([1]; isolate SI_P11, CARB, β/I, ESC, FQ, AG) | MIC ([1]; isolate SI_P12, CARB, β/I, ESC, FQ) | MIC ([1]; isolate SI_P13, phenotype none) | MIC ([1]; isolate SI_P14, CARB) | MIC ([1]; isolate SI_P16, CARB, β/I, ESC, FQ, AG) | MIC ([1]; isolate SI_P19, phenotype none) | MIC ([1]; isolate SI_P35, CARB, β/I, ESC, FQ)
70%: mortality (BALB/c mice; after 24 hours)
1 µg/mL: MIC ([1]; isolate SI_P18, phenotype none) | MIC ([1]; isolate SI_P21, FQ, AG)
≤ 0.5 μg/mL and ≤ 0.4 μM: MIC ([1]; isolate SI_P39, CARB, β/I, ESC, FQ, AG, blaVIM) | MIC ([1]; isolate SI_P40, phenotype none) | MIC ([1]; isolate SI_P41, CARB, β/I, ESC, FQ, AG) | MIC ([1]; isolate SI_P42, phenotype none) | MIC ([1]; isolate SI_P44, CARB, ESC, FQ, AG) | MIC ([1]; isolate SI_P45, phenotype none) | MIC ([1]; isolate SI_P46, phenotype none) | MIC ([1]; isolate SI_P47, phenotype none) | MIC ([1]; isolate SI_P48, phenotype none) | MIC ([1]; isolate SI_P49, CARB, β/I, ESC, FQ, AG) | MIC ([1]; isolate SI_P50, phenotype none) | MIC ([1]; isolate SI_P51, CARB, β/I, ESC, FQ, AG) | MIC ([1]; isolate SI_P52, CARB, AG) | MIC ([1]; isolate SI_P53, CARB, β/I, ESC, FQ) | MIC ([1]; isolate SI_P54, CARB, β/I, FQ, AG) | MIC ([1]; isolate SI_P55, phenotype none) | MIC ([1]; isolate SI_P56, CARB) | MIC ([1]; isolate SI_P57, β/I) | MIC ([1]; isolate SI_P58, FQ, AG) | MIC ([1]; isolate SI_P59, β/I, ESC) | MIC ([1]; isolate SI_P61, CARB, β/I, ESC, FQ, AG, blaVIM) | MIC ([1]; isolate SI_P63, CARB, β/I, ESC, FQ, AG, blaVIM) | MIC ([1]; isolate SI_P64, CARB, β/I, ESC, FQ, AG) | MIC ([1]; isolate SI_P66, CARB, FQ) | MIC ([1]; isolate SI_P67, CARB, β/I, ESC, FQ, AG, blaVIM) | MIC ([1]; isolate SI_P68, phenotype none) | MIC ([1]; isolate SI_P70, CARB) | MIC ([1]; isolate SI_P71, phenotype none) | MIC ([1]; isolate SI_P73, β/I) | MIC ([1]; isolate SI_P74, phenotype none)
0.15 µM: MIC [3]
≤ 0.4 μM and ≤ 0.5 μg/mL: MIC ([1]; isolate SI_P43, FQ)
2 μg/mL and 1.5 μM: MIC ([1]; isolate SI_P60, CARB, β/I, ESC, FQ, AG, blaVIM) | MIC ([1]; isolate SI_P62, CARB, β/I, ESC, FQ, AG, blaVIM) | MIC ([1]; isolate SI_P65, CARB, β/I, ESC, FQ, AG) | MIC ([1]; isolate SI_P69, CARB) | MIC ([1]; isolate SI_P72, FQ, AG) | MIC ([1]; isolate SI_P75, CARB, β/I, ESC, FQ, AG, blaIMP)
≤ 0.5 µg/mL: MIC ([1]; isolate SI_P1, phenotype none) | MIC ([1]; isolate SI_P4, CARB, β/I, ESC, FQ, AG) | MIC ([1]; isolate SI_P5, CARB, ESC, β/I, FQ, AG) | MIC ([1]; isolate SI_P7, CARB, β/I, ESC, FQ, AG) | MIC ([1]; isolate SI_P8, CARB, ESC, AG) | MIC ([1]; isolate SI_P9, CARB, β/I, ESC, FQ, AG) | MIC ([1]; isolate SI_P10, CARB, β/I, ESC, FQ, AG) | MIC ([1]; isolate SI_P15, CARB, β/I, ESC, FQ, AG) | MIC ([1]; isolate SI_P17, CARB, β/I, ESC, FQ, AG, blaVIM) | MIC ([1]; isolate SI_P20, phenotype none) | MIC ([1]; isolate SI_P22, phenotype none) | MIC ([1]; isolate SI_P23, phenotype none) | MIC ([1]; isolate SI_P24, phenotype none) | MIC ([1]; isolate SI_P25, AG) | MIC ([1]; isolate SI_P26, phenotype none) | MIC ([1]; isolate SI_P27, CARB) | MIC ([1]; isolate SI_P28, phenotype none) | MIC ([1]; isolate SI_P29, phenotype none) | MIC ([1]; isolate SI_P30, phenotype none) | MIC ([1]; isolate SI_P31, phenotype none) | MIC ([1]; isolate SI_P32, phenotype none) | MIC ([1]; isolate SI_P33, CARB, β/I, ESC, FQ) | MIC ([1]; isolate SI_P34, CARB, β/I) | MIC ([1]; isolate SI_P36, CARB, AG) | MIC ([1]; isolate SI_P37, CARB, β/I, ESC, FQ, AG) | MIC ([1]; isolate SI_P38, CARB, β/I, ESC, FQ, AG, blaVIM)

From paper PMC4864329, “In vitro and in vivo efficacy, toxicity, bio-distribution and resistance selection of a novel antibacterial drug candidate” (Scientific Reports, 2016)
